Source: patent publication US20090131309A1, “ICA512 COUPLES INSULIN SECRETION AND GENE EXPRESSION IN BETA-CELLS” (Technische Universität Dresden Medizinizche Fakultät Carl …, priority 2004, published 2009)

System: ICA512-TMF
Assay: Stimulus-induced cleavage of ICA512-TMF in INS-1 cells (western blot)
Type: cell-based, rat
Description: Cell extracts and western blotting. Wild type and transfected INS-1 cells and rat pancreatic islets (350-450) were pre-incubated for 60 minutes in resting buffer containing 0 mM glucose and 5 mM KCl and then incubated for various times in fresh resting or stimulating buffer including 25 mM glucose and 55 mM KCl, as previously described (7). […] Next, the cells were washed with ice cold PBS, and extracted in lysis buffer (10 mM Tris-HCl at pH 8.0, 140 mM NaCl, 1% Triton X-100, 1 mM EDTA, 1 mM PMSF, and 1% protease inhibitor cocktail (Sigma, St. Louis, Mo.) at 4° C. Cytosolic and nuclear extracts were prepared using the NE-PER Nuclear and Cytoplasmic Extraction Reagents (Pierce, Rockford, Ill.) in accordance with the manufacturer's instructions. Protein concentration was measured using the Bio-Rad Protein Assay Reagent (Bio-Rad, Hercules, Calif.). Equivalent amount of protein was separated by 8-10% SDS-PAGE, except for nuclear extracts, in which case half of the protein were loaded compared to the corresponding cytosolic extracts. After protein transferring, nitrocellulose filters were incubated with the following antibodies: mouse monoclonal anti-ICA512 (6), anti-μ-calpain (Chemicon, Temecula, Calif.), anti-γ-tubulin and anti-HA (Sigma), anti-GFP (Clontech); rabbit polyclonals anti-Glut2 (Alpha Diagnostics International, St Antonio, Tex.), anti-CPE (Chemicon), anti-GFP (Molecular Probes, Eugene, Oreg.) and anti-HA (kind gift of Christoph Thiele). Chemiluminescence was developed using the Supersignal West Pico Substrate (Pierce) as substrate and detected with a LAS 3000 Bioimaging System (Fuji, Tokyo, Japan). Quantitation of protein signals was performed with the Image Gauge v3.45 software (Fuji).

CCCC[C@@H](C=O)NC(=O)[C@H](CC(C)C)NC(=O)OCc1ccccc1 [calpeptin]
Ca2+-dependent cleavage of ICA512-TMF cytoplasmic domain upon stimulation (INS-1 cells, stimulating buffer (25 mM glucose, 55 mM KCl) 105 min, western blot): prevented in a dose-dependent manner
stimulation induced proteolysis of ICA512-TMF-GFP (cytosolic extracts of ICA512-GFP INS-1 cells, 60 μM calpeptin): calpeptin-sensitive proteolysis of ICA512-TMF-GFP
increased proteolysis of ICA512-TMF in dynamin 1 (K44A)-GFP cells (stimulated INS-1 cells expressing dynamin 1 (K44A)-GFP): inhibited by calpeptin in a dose-dependent fashion
